Data from patent publication US7488468B1, “Near infrared fluorescent contrast agent and fluorescence imaging” (Schering AG, priority 1998, dated 2009).

Experiments:
[1] = Partition coefficient (log Po/w) of n-butanol/water; format: physicochemical; details: n-butanol/water two-phase system
Description: The fluorescent contrast agent to be used in a living body should be particularly water soluble. […] For easy synthesis, the number of the sulfonic acid groups is not more than 10, preferably not more than 8. The improvement in the water solubility can be determined by measuring partition coefficient of each compound, which for example, may be measured in a two-phase system of butanol/water. More specifically, introduction of 3 or more sulfonic acid groups results in a partition coefficient log Po/w of n-butanol/water of not more than −1.00.

[2] = system: mice; test: Acute toxicity; format: in vivo; details: intravenous injection from tail vein, conscious mice, monitored for 3 days
Method: Reduction of toxicity by the introduction of sulfonic acid group and reduction thereof by conversion into sodium salt were studied.
Each test compound was dissolved in distilled water to give a compound solution. This solution was intravenously injected to the conscious mice from the tail vein. The mice were monitored for 3 days after the administration, and acute toxicity [LD50 (mg/kg body weight)] was estimated.

**Q.** For `CC1(C)C(=CC=CC2=[N+](CCCS(=O)(=O)[O-])c3ccccc3C2(C)C)N(CCCS(=O)(=O)[O-])c2ccccc21.[Na+]` [NK-1967], which “log Po/w (butanol/water)” value [1] is on record?
**A.** Its value is 0.34.

**Q.** What about the LD50 [2] of the same molecule?
**A.** Its LD50 is 20 mg/kg body weight.
